# In BindingDB's records for doi:10.1021/jm00148a012 (1985):
# Target: Gamma-aminobutyric acid type B receptor subunit 1/2 (UniProt Q9Z0U4+O88871)
# Test: Displacement of [3H]baclofen from Gamma-aminobutyric acid type B receptor in rat brain membranes
# Chain of Gamma-aminobutyric acid type B receptor subunit 1/2 (Q9Z0U4 whole entry): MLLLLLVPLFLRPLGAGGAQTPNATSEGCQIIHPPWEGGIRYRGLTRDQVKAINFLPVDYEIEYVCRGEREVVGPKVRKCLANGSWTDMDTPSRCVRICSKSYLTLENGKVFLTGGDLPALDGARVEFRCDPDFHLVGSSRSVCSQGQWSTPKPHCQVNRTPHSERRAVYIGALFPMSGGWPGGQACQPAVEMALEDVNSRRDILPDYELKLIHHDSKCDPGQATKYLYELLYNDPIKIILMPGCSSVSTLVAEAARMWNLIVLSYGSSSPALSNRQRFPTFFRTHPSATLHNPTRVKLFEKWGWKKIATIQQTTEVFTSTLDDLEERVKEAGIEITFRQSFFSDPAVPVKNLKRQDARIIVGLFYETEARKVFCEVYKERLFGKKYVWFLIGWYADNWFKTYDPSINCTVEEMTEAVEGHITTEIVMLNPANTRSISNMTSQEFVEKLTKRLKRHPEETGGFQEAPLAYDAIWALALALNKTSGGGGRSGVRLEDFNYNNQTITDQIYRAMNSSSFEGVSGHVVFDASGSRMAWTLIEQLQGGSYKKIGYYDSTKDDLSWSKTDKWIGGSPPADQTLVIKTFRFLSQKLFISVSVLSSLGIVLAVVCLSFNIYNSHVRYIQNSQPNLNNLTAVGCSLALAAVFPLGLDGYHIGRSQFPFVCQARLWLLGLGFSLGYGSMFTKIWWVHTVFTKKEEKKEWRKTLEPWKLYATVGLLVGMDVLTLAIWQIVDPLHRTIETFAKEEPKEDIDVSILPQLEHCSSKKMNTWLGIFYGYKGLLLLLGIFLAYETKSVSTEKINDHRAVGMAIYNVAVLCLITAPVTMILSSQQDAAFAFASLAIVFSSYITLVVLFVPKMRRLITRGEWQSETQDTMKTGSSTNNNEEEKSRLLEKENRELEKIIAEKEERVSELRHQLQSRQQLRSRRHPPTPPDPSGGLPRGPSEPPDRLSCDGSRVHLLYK
# Chain of Gamma-aminobutyric acid type B receptor subunit 1/2 (O88871 whole entry): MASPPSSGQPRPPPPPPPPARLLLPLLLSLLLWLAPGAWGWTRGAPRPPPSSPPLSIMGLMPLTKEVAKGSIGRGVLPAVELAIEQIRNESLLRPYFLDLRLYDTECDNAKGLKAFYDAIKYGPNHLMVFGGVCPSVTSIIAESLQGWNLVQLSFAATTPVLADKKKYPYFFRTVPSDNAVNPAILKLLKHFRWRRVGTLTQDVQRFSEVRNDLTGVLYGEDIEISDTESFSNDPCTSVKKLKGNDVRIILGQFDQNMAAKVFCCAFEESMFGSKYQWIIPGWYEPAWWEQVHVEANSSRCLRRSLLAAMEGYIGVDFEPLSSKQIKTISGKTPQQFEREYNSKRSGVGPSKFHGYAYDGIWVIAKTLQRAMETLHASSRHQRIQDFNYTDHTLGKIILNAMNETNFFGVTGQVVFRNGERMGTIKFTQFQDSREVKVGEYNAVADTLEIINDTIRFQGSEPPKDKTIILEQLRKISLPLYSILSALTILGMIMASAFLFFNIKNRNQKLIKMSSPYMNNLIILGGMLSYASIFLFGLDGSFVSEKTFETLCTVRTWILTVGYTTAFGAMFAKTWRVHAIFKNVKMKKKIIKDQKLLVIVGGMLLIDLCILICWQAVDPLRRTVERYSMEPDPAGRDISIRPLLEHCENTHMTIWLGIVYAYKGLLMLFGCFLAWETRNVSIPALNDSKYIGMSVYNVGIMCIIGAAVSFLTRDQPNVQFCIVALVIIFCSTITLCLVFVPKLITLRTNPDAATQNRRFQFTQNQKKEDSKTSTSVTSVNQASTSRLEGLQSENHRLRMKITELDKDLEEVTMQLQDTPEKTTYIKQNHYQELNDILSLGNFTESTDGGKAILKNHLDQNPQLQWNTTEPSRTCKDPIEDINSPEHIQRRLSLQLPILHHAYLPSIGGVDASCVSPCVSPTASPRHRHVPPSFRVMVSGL
structure (smiles),measurement,value
NCC1CC(=O)CC(=O)C1,IC50,> 100 µM
